The OligoGym collection
HELM strings list units from the 5' end as sugar, base in round brackets, then linkage (d deoxyribose, r ribose, m 2'-O-methyl, p phosphodiester). Strings are as the collection lists them; they lack the last nucleoside at the 3' end of the tested compound. [moe] = 2'-O-(2-methoxyethyl) (MOE); [sp] = phosphorothioate linkage; [m5C] = 5-methylcytosine

Molecular target: ATXN2
Test: mouse, dose not given
Details: ASO

Substance | 3 h FOB score
RNA1{[moe](T)[sp].[moe](G)p.[moe](T)p.[moe](A)p.[moe]([m5C])p.d(T)[sp].d(T)[sp].d(T)[sp].d(T)[sp].d([m5C])[sp].d(T)[sp].d([m5C])[sp].d(A)[sp].d(T)[sp].d(G)[sp].[moe](T)p.[moe](G)p.[moe]([m5C])[sp].[moe](G)}$$$$ (last 3' nucleoside missing) | 1 score 0-7
RNA1{[moe](T)[sp].[moe](G)p.[moe](T)p.[moe](A)p.[moe]([m5C])p.d(T)[sp].d(T)[sp].d([m5C])[sp].d(A)[sp].d(A)[sp].d(A)[sp].d(T)[sp].d(T)[sp].d(T)[sp].d(T)[sp].[moe](G)p.[moe](T)p.[moe](T)[sp].[moe](T)}$$$$ (last 3' nucleoside missing) | 0 score 0-7
RNA1{[moe](T)[sp].[moe](G)p.[moe](T)p.[moe](A)p.[moe]([m5C])p.d(T)[sp].d(T)[sp].d([m5C])[sp].d(A)[sp].d([m5C])[sp].d(A)[sp].d(T)[sp].d(T)[sp].d(T)[sp].d(G)[sp].[moe](G)p.[moe](A)p.[moe](G)[sp].[moe]([m5C])}$$$$ (last 3' nucleoside missing) | 2 score 0-7
RNA1{[moe](T)[sp].[moe](G)p.[moe](T)p.[moe](A)p.d([m5C])[sp].d(T)[sp].d(T)[sp].d([m5C])[sp].d(A)[sp].d([m5C])[sp].d(A)[sp].d(T)[sp].d(T)[sp].d(T)[sp].[moe](G)p.[moe](G)p.[moe](A)p.[moe](G)[sp].[moe]([m5C])}$$$$ (last 3' nucleoside missing) | 1 score 0-7
RNA1{[moe](T)[sp].[moe](G)p.[moe](T)p.[moe](G)p.[moe](A)p.d(G)[sp].d(T)[sp].d(T)[sp].d([m5C])[sp].d(A)[sp].d([m5C])[sp].d([m5C])[sp].d(T)[sp].d(G)[sp].d([m5C])[sp].[moe](A)p.[moe](T)p.[moe]([m5C])[sp].[moe]([m5C])}$$$$ (last 3' nucleoside missing) | 3.5 score 0-7
RNA1{[moe](T)[sp].[moe](G)p.[moe](T)p.[moe](G)p.[moe](T)p.d(A)[sp].d(T)[sp].d(T)[sp].d(T)[sp].d(T)[sp].d(T)[sp].d([m5C])[sp].d(T)[sp].d(T)[sp].d([m5C])[sp].[moe]([m5C])p.[moe](T)p.[moe]([m5C])[sp].[moe](A)}$$$$ (last 3' nucleoside missing) | 0.25 score 0-7
RNA1{[moe](T)[sp].[moe](G)p.[moe](T)p.[moe](G)p.[moe](T)p.d(T)[sp].d([m5C])[sp].d(A)[sp].d(T)[sp].d(G)[sp].d(A)[sp].d([m5C])[sp].d(T)[sp].d(T)[sp].d(T)[sp].[moe]([m5C])p.[moe](A)p.[moe](A)[sp].[moe](G)}$$$$ (last 3' nucleoside missing) | 4.5 score 0-7
RNA1{[moe](T)[sp].[moe](G)p.[moe](T)p.[moe](T)p.[moe](A)p.d([m5C])[sp].d(T)[sp].d(G)[sp].d(T)[sp].d(T)[sp].d(T)[sp].d([m5C])[sp].d(G)[sp].d(A)[sp].d([m5C])[sp].[moe]([m5C])p.[moe](T)p.[moe]([m5C])[sp].[moe](T)}$$$$ (last 3' nucleoside missing) | 6.25 score 0-7
RNA1{[moe](T)[sp].[moe](G)p.[moe](T)p.[moe](T)p.[moe](A)p.d([m5C])[sp].d(T)[sp].d(T)[sp].d(A)[sp].d(T)[sp].d(T)[sp].d(A)[sp].d([m5C])[sp].d([m5C])[sp].d(T)[sp].[moe](T)p.[moe]([m5C])p.[moe]([m5C])[sp].[moe](T)}$$$$ (last 3' nucleoside missing) | 4 score 0-7
RNA1{[moe](T)[sp].[moe](G)p.[moe](T)p.[moe](T)p.[moe](G)p.d(T)[sp].d(T)[sp].d(G)[sp].d(T)[sp].d(T)[sp].d(T)[sp].d(A)[sp].d([m5C])[sp].d(A)[sp].d(T)[sp].[moe](T)p.[moe](A)p.[moe](T)[sp].[moe](T)}$$$$ (last 3' nucleoside missing) | 0 score 0-7
RNA1{[moe](T)[sp].[moe](G)p.[moe](T)p.[moe](T)p.[moe](G)p.d([m5C])[sp].d(A)[sp].d([m5C])[sp].d(A)[sp].d(T)[sp].d(A)[sp].d(G)[sp].d(G)[sp].d(T)[sp].d(T)[sp].[moe](A)p.[moe](G)p.[moe](A)[sp].[moe](A)}$$$$ (last 3' nucleoside missing) | 4 score 0-7
RNA1{[moe](T)[sp].[moe](G)p.[moe](T)p.[moe](T)p.[moe](T)p.d(G)[sp].d(T)[sp].d(T)[sp].d(T)[sp].d(G)[sp].d(T)[sp].d(T)[sp].d(T)[sp].d(T)[sp].d(A)[sp].[moe](A)p.[moe](G)p.[moe](T)[sp].[moe](A)}$$$$ (last 3' nucleoside missing) | 6.5 score 0-7
RNA1{[moe](T)[sp].[moe](G)p.[moe](T)p.[moe](T)p.[moe]([m5C])p.d(T)[sp].d(T)[sp].d([m5C])[sp].d([m5C])[sp].d(A)[sp].d(A)[sp].d(T)[sp].d(T)[sp].d(T)[sp].d([m5C])[sp].[moe](A)p.[moe](G)p.[moe](A)[sp].[moe]([m5C])}$$$$ (last 3' nucleoside missing) | 0 score 0-7
RNA1{[moe](T)[sp].[moe](G)p.[moe](T)p.[moe]([m5C])p.[moe](A)p.d(T)[sp].d(A)[sp].d([m5C])[sp].d(T)[sp].d(G)[sp].d(T)[sp].d(A)[sp].d(T)[sp].d(T)[sp].d(G)[sp].[moe](T)p.[moe](T)p.[moe](T)[sp].[moe](T)}$$$$ (last 3' nucleoside missing) | 5.25 score 0-7
RNA1{[moe](T)[sp].[moe](G)p.[moe]([m5C])p.[moe](A)p.[moe](A)p.d([m5C])[sp].d(T)[sp].d(T)[sp].d(A)[sp].d(A)[sp].d(T)[sp].d(A)[sp].d(A)[sp].d([m5C])[sp].d([m5C])[sp].[moe](T)p.[moe](T)p.[moe](A)[sp].[moe](G)}$$$$ (last 3' nucleoside missing) | 1.75 score 0-7
RNA1{[moe](T)[sp].[moe](G)p.[moe]([m5C])p.[moe](T)p.[moe](A)[sp].d(A)[sp].d([m5C])[sp].d(T)[sp].d(G)[sp].d(G)[sp].d(T)[sp].d(T)[sp].d(T)[sp].[moe](G)p.[moe]([m5C])p.[moe]([m5C])[sp].[moe]([m5C])}$$$$ (last 3' nucleoside missing) | 6 score 0-7
RNA1{[moe](T)[sp].[moe](G)p.[moe]([m5C])p.[moe](T)p.[moe](A)p.d(A)[sp].d([m5C])[sp].d(T)[sp].d(G)[sp].d(G)[sp].d(T)[sp].d(T)[sp].d(T)[sp].d(G)[sp].d([m5C])[sp].[moe]([m5C])p.[moe]([m5C])p.[moe](T)[sp].[moe](T)}$$$$ (last 3' nucleoside missing) | 7 score 0-7
RNA1{[moe](T)[sp].[moe](G)p.[moe]([m5C])p.[moe](T)p.[moe](T)p.d(A)[sp].d(T)[sp].d(T)[sp].d(A)[sp].d(T)[sp].d(T)[sp].d([m5C])[sp].d(T)[sp].d([m5C])[sp].d(A)[sp].[moe]([m5C])p.[moe](A)p.[moe](T)[sp].[moe](A)}$$$$ (last 3' nucleoside missing) | 0 score 0-7
RNA1{[moe](T)[sp].[moe](G)p.[moe]([m5C])p.[moe](T)p.[moe]([m5C])p.d(T)[sp].d([m5C])[sp].d(T)[sp].d(T)[sp].d(T)[sp].d(G)[sp].d([m5C])[sp].d(G)[sp].d([m5C])[sp].d([m5C])[sp].[moe](T)p.[moe](G)p.[moe](T)[sp].[moe](G)}$$$$ (last 3' nucleoside missing) | 5 score 0-7
RNA1{[moe](T)[sp].[moe](G)p.[moe]([m5C])p.[moe]([m5C])p.[moe](T)[sp].d([m5C])[sp].d(T)[sp].d(A)[sp].d([m5C])[sp].d(T)[sp].d([m5C])[sp].d(G)[sp].d(G)[sp].[moe](T)p.[moe]([m5C])p.[moe]([m5C])[sp].[moe](A)}$$$$ (last 3' nucleoside missing) | 4 score 0-7
RNA1{[moe](T)[sp].[moe](T)p.[moe](A)p.[moe](A)p.[moe]([m5C])p.d(A)[sp].d([m5C])[sp].d(T)[sp].d(T)[sp].d(T)[sp].d(A)[sp].d([m5C])[sp].d(T)[sp].d([m5C])[sp].d(A)[sp].[moe]([m5C])p.[moe](T)p.[moe](G)[sp].[moe]([m5C])}$$$$ (last 3' nucleoside missing) | 4.5 score 0-7
RNA1{[moe](T)[sp].[moe](T)p.[moe](A)p.[moe](A)p.[moe]([m5C])p.d(T)[sp].d(G)[sp].d(T)[sp].d(G)[sp].d(T)[sp].d(T)[sp].d(A)[sp].d(G)[sp].d(A)[sp].d(A)[sp].[moe](T)p.[moe](G)p.[moe]([m5C])[sp].[moe](T)}$$$$ (last 3' nucleoside missing) | 5.5 score 0-7
RNA1{[moe](T)[sp].[moe](T)p.[moe](A)p.[moe](G)p.[moe](A)[sp].d(G)[sp].d(T)[sp].d(T)[sp].d(T)[sp].d(T)[sp].d(T)[sp].d(G)[sp].d([m5C])[sp].[moe]([m5C])p.[moe](T)p.[moe](T)[sp].[moe]([m5C])}$$$$ (last 3' nucleoside missing) | 5.5 score 0-7
RNA1{[moe](T)[sp].[moe](T)p.[moe](A)p.[moe](G)p.[moe](A)p.d(G)[sp].d(T)[sp].d(T)[sp].d(T)[sp].d(T)[sp].d(T)[sp].d(G)[sp].d([m5C])[sp].d([m5C])[sp].d(T)[sp].[moe](T)p.[moe]([m5C])p.[moe]([m5C])[sp].[moe](A)}$$$$ (last 3' nucleoside missing) | 3.5 score 0-7
RNA1{[moe](T)[sp].[moe](T)p.[moe](A)p.[moe](G)p.[moe](G)p.d([m5C])[sp].d(T)[sp].d(A)[sp].d(G)[sp].d(G)[sp].d([m5C])[sp].d(A)[sp].d([m5C])[sp].d(A)[sp].d(T)[sp].[moe](G)p.[moe](G)p.[moe](A)[sp].[moe](G)}$$$$ (last 3' nucleoside missing) | 5.25 score 0-7
RNA1{[moe](T)[sp].[moe](T)p.[moe](A)p.[moe](G)p.[moe]([m5C])p.d(T)[sp].d([m5C])[sp].d(A)[sp].d(T)[sp].d([m5C])[sp].d(A)[sp].d(A)[sp].d(G)[sp].d(G)[sp].d(T)[sp].[moe](A)p.[moe]([m5C])p.[moe]([m5C])[sp].[moe](A)}$$$$ (last 3' nucleoside missing) | 3.75 score 0-7
RNA1{[moe](T)[sp].[moe](T)p.[moe](A)p.[moe]([m5C])p.[moe](T)[sp].d(G)[sp].d(T)[sp].d(T)[sp].d(T)[sp].d([m5C])[sp].d(G)[sp].d(A)[sp].d([m5C])[sp].[moe]([m5C])p.[moe](T)p.[moe]([m5C])[sp].[moe](T)}$$$$ (last 3' nucleoside missing) | 6 score 0-7
